# According to patent US10759785B2, “Compounds” (ENTERPRISE THERAPEUTICS LIMITED, priority 2016, dated 2020):
# Counter-ions that a name gives are not always drawn.
# Assays:
# Type in all cases: in vitro ADME
# [1] = Microsomal stability (human microsomes); details: 0.5 mg/mL protein, 1 mM NADPH, 37° C.; for Averages. Mic Half Life Human: 1 μM test compound; for half-life at 1 μM: pH 7.4, 1 μM test compound, read-out: Averages. Mic Half Life Human
# Experimental: Example 28—Microsomal Stability
# Microsomes (rat and human) were obtained from Bioreclamation. Test compound stock solutions in DMSO (10 mM) were diluted with DMSO to 2 mM. Further dilution was completed to achieve a 100 μM stock (final concentrations; 91.5% Acetonitrile: 8.5% DMSO). Final test compound concentration in incubation was 1 μM (<0.1% DMSO). The following probe substrates were used: verapamil, propranolol, metoprolol and phenacetin (rat) at a final incubation concentration of 1 μM. Assay buffer—Solution 1: 17.4 g potassium phosphate dibasic anhydrous (K2HPO4, 0.1 M) dissolved in 1 L deionised water. Solution 2: 13.6 g potassium phosphate monobasic anhydrous (KH2PO4, 0.1 M) dissolved in 1 L deionised water. Potassium phosphate solutions 1 and 2 were combined to form a pH 7.42 solution at 37° C. pH 7.4 with 2 mM magnesium chloride. NADPH (10 mM)—diluted in deionised water. Frozen microsomes were thawed at 37° C. Microsomes were diluted in assay buffer to achieve a final protein concentration of 0.5 mg/mL and 1 mM NADPH. The following procedure was completed on a Perkin Elmer Janus robotic platform in 96 well format: The microsomal incubation plate was transferred to a heater shaker at 300 rpm and solution heated to 37° C. for 10 min pre-warm. A no co-factor control at 0 and 45 min and one replicates of each test compound was included in every assay. Microsomes were incubated at 37° C., on a shaker set at 300 rpm throughout the assay. At each timepoint (0, 5, 15, 30, 45 min) 50 μL of sample was removed from the 96-well and added to 200 μL of quench solution (acetonitrile containing 0.1% formic acid and imipramine/labetalol, 200 nM). Samples were diluted 1:1 with water using the Janus Robot and analysed by LC-MS/MS.
# [2] = Hepatic stability (human cryopreserved hepatocytes); details: 1×10^6 cells/mL, 37° C.; for Averages. Hep Half Life Human: 1 μM test compound; for half-life at 1 μM: cryopreserved hepatocytes, pH 7.4, 1 μM test compound, read-out: Averages. Hep Half Life Human
# Experimental: (§1) Example 29—Hepatic Stability
# (§2) Cryopreserved hepatocytes (rat and human) were obtained from Bioreclamation. Test compound stock solutions in DMSO (10 mM) were diluted with DMSO to 4 mM. Further dilution was completed to achieve a 100 μM stock (5 μL of 4 mM in 195 μL of 50:50 DMSO:hepatocyte buffer). Final test compound concentration in incubation was 1 μM. The following probe substrates were used: testosterone and carbamazepine at a final incubation concentration of 1 μM. Hepatocyte buffer was prepared (Williams E media containing phenol red and Glutamax™, 15 mM HEPES, warmed to 37° C., pH7.4 with NaOH). Cells were removed from liquid nitrogen, thawed in a waterbath, decanted into 50 mL of pre-warmed Cryopreserved Hepatocyte Recovery Media (LifeTechnologies) and centrifuged. Supernatant fraction was removed, cells were re-suspended in hepatocyte buffer and counted by trypan blue exclusion. Cell viability of >80% was required for all assays. Cells were re-suspended to 1×10^6/mL and 198 μL cell suspension added to each 96-well. 2 μL of 100 μM compound stock solution was added to relevant wells to initiate the incubation. A no cell control and two replicates of each test compound was included in every assay. Cells were incubated at 37° C., on a shaker set at 300 rpm. At each timepoint (0, 15, 30, 45, 60, 90 min) 20 μL of sample was removed from the 96-well and added to 80 μL of quench solution (acetonitrile containing 0.1% formic acid and imipramine/labetalol, 200 nM). Samples were diluted 1:1 with water using the Janus Robot and analysed by LC-MS/MS.
# [3] = Hepatic stability (rat cryopreserved hepatocytes); details: pH 7.4, 1 μM test compound, 1×10^6 cells/mL, 37° C., read-out: Averages. Hep Half Life Rat
# Experimental: as §1, §2
SMILES,Averages. Mic Half Life Human [1] [h],Averages. Hep Half Life Human [2] [h],half-life at 1 μM [3] [h],half-life at 1 μM [1] [h],half-life at 1 μM [2] [h]
"CCc1cnc(N)c(C(=O)NCc2n(CC)c3cc(OC)ccc3[n+]2C)n1.[I-] [Example 8, 2-{[(3-amino-6-ethylpyrazin-2-yl)formamido]methyl}-1-ethyl-6-methoxy-3-methyl-1H-1,3-benzodiazol-3-ium iodide]",–,–,–,0.383,–
"CCn1c(CNC(=O)c2nc(C)cnc2N)[n+](C)c2ccc(OC)cc21.[I-] [Example 7, 2-{[(3-amino-6-methylpyrazin-2-yl)formamido]methyl}-1-ethyl-6-methoxy-3-methyl-1H-1,3-benzodiazol-3-ium iodide]",–,–,0.267,0.367,2.15
"CCn1c(CNC(=O)c2nc(Cl)cnc2N)[n+](C)c2ccc(OC)cc21.[I-] [Example 5, 2-{[(3-amino-6-chloropyrazin-2-yl)formamido]methyl}-1-ethyl-6-methoxy-3-methyl-1H-1,3-benzodiazol-3-ium iodide]",–,–,0.0833,0.2,1.13
"CCn1c(CNC(=O)c2nc(SC)cnc2N)[n+](C)c2ccc(OC)cc21.[I-] [Example 9, 2-({[3-amino-6-(methylsulfanyl)pyrazin-2-yl]formamido}methyl)-1-ethyl-6-methoxy-3-methyl-1H-1,3-benzodiazol-3-ium iodide]",–,–,–,0.0833,–
"CCn1c(CNC(=O)c2nc(Br)cnc2N)[n+](CCO)c2ccc(OC)cc21.O=C[O-] [Example 3, 2-{[(3-amino-6-bromopyrazin-2-yl)formamido]methyl}-1-ethyl-3-(2-hydroxyethyl)-6-methoxy-1H-1,3-benzodiazol-3-ium formate]",–,4,0.217,1.48,–
"CCn1c(CNC(=O)c2nc(Br)cnc2N)[n+](CC)c2ccc(OCCNC(=O)OC(C)(C)C)cc21.O=C[O-] [Example 24, 2-{[(3-amino-6-bromopyrazin-2-yl)formamido]methyl}-6-(2-{[(tert-butoxy)carbonyl]amino}ethoxy)-1,3-diethyl-1H-1,3-benzodiazol-3-ium formate]",–,–,0.7,0.983,1.22
"CCn1c(CNC(=O)c2nc(Br)cnc2N)[n+](CC)c2ccc(OC)cc21.O=C[O-] [Example 2, 2-{[(3-amino-6-bromopyrazin-2-yl)formamido]methyl}-1,3-diethyl-6-methoxy-1H-1,3-benzodiazol-3-ium formate]",–,–,0.0833,0.967,1.5
"CCn1c(CNC(=O)c2nc(Br)cnc2N)[n+](CCOCCOCCO)c2ccc(OC)cc21.O=C[O-] [Example 4, 2-{[(3-amino-6-bromopyrazin-2-yl)formamido]methyl}-1-ethyl-3-{2-[2-(2-hydroxyethoxy)ethoxy]ethyl}-6-methoxy-1H-1,3-benzodiazol-3-ium formate]",–,4,0.267,1.43,–

# The next lines start with the values.
Averages. Mic Half Life Human [1] [h],Averages. Hep Half Life Human [2] [h],half-life at 1 μM [3] [h],half-life at 1 μM [1] [h],half-life at 1 μM [2] [h],SMILES
2.3,4,0.1,–,–,"CCn1c(CNC(=O)c2nc(Br)cnc2N)[n+](C)c2ccc(Cl)cc21.O=CO.O=C[O-] [Example 11, 2-{[(3-amino-6-bromopyrazin-2-yl)formamido]methyl}-6-chloro-1-ethyl-3-methyl-1H-1,3-benzodiazol-3-ium formic acid formate]"
–,–,2.07,> 2.3,1.2,"CCn1c(CNC(=O)c2nc(Br)cnc2N)[n+](CC)c2ccc(-c3cnn(C4CCN(C[C@H](O)[C@@H](O)[C@H](O)[C@H](O)CO)CC4)c3)cc21.O=CO.[Cl-] [Example 23, 2-{[(3-amino-6-bromopyrazin-2-yl)formamido]methyl}-1,3-diethyl-6-(1-{1-[(2S,3R,4R,5R)-2,3,4,5,6-pentahydroxyhexyl]piperidin-4-yl}-1H-pyrazol-4-yl)-1H-1,3-benzodiazol-3-ium formic acid chloride]"
–,–,0.983,> 2.3,> 4,"CCn1c(CNC(=O)c2nc(Br)cnc2N)[n+](CC)c2ccc(OCCN)cc21.Cl.[Cl-] [Example 25, 2-{[(3-Amino-6-bromopyrazin-2-yl)formamido]methyl}-6-(2-aminoethoxy)-1,3-diethyl-1H-1,3-benzodiazol-3-ium hydrochloride chloride]"
–,4,0.283,–,–,"CCn1c(CNC(=O)c2nc(Br)cnc2N)[n+](Cc2ccccc2)c2ccc(C(F)(F)F)cc21.O=C[O-] [Example 19, 2-{[(3-Amino-6-bromopyrazin-2-yl)formamido]methyl}-3-benzyl-1-ethyl-6-(trifluoromethyl)-1H-1,3-benzodiazol-3-ium formate]"
–,–,0.383,> 2.3,3.87,"CCn1c(CNC(=O)c2nc(C#N)cnc2N)[n+](CC)c2ccc(OC)cc21 [Example 26, 2-{[(3-amino-6-cyanopyrazin-2-yl)formamido]methyl}-1,3-diethyl-6-methoxy-1H-1,3-benzodiazol-3-ium formate]"
2.3,–,0.233,–,2.57,"CCn1c(CNC(=O)c2nc(Br)cnc2N)[n+](CC)c2ccc(C(=O)OC)cc21.[I-] [Example 15, 2-{[(3-amino-6-bromopyrazin-2-yl)formamido]methyl}-1,3-diethyl-6-(methoxycarbonyl)-1H-1,3-benzodiazol-3-ium iodide]"
–,–,0.767,> 2.3,2.28,"CCn1c(CNC(=O)c2nc(Br)cnc2N)[n+](CC)c2ccc(C(=O)N[C@H]3CCOC3=O)cc21 [Example 18, 2-{[(3-amino-6-bromopyrazin-2-yl)formamido]methyl}-1,3-diethyl-6-{[(3S)-2-oxooxolan-3-yl]carbamoyl}-1H-1,3-benzodiazol-3-ium formate]"
2.3,–,0.467,–,3.42,"CCn1c(CNC(=O)c2nc(Br)cnc2N)[n+](C)c2ccc(OC(F)(F)F)cc21.O=C[O-] [Example 14, 2-{[(3-amino-6-bromopyrazin-2-yl)formamido]methyl}-1-ethyl-3-methyl-6-(trifluoromethoxy)-1H-1,3-benzodiazol-3-ium formate]"
–,–,0.533,2.25,1.68,"CCn1c(CNC(=O)c2nc(Br)cnc2N)[n+](CC)c2ccc(C(=O)N[C@@H]3CCOC3=O)cc21 [Example 17, 2-{[(3-amino-6-bromopyrazin-2-yl)formamido]methyl}-1,3-diethyl-6-{[(3R)-2-oxooxolan-3-yl]carbamoyl}-1H-1,3-benzodiazol-3-ium formate]"
2.3,4,0.233,–,–,"CCn1c(CNC(=O)c2nc(Br)cnc2N)[n+](C)c2ccc(C(F)(F)F)cc21.[I-] [Example 13, 2-{[(3-amino-6-bromopyrazin-2-yl)formamido]methyl}-1-ethyl-3-methyl-6-(trifluoromethyl)-1H-1,3-benzodiazol-3-ium iodide]"
–,–,–,1.85,–,"CCn1c(CNC(=O)c2nc(Br)cnc2N)[n+](C)c2ccc(F)cc21.O=C[O-] [Example 12, 2-{[(3-amino-6-bromopyrazin-2-yl)formamido]methyl}-1-ethyl-6-fluoro-3-methyl-1H-1,3-benzodiazol-3-ium formate]"
